The target in assay [1] is MCL1/Bim (Homo sapiens (Human), UniProt Q07820). In words: MCL1/Bim Binding AlphaLISA Assay. Conditions: recombinant human 6xHis-MCL1 (171-327), biotinylated Bim peptide (51-76). Put shortly: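 AlphaLISA with 0.0625 nM human 6×His-MCL1 (171-327) and 0.0625 nM biotinylated Bim (51-76) peptide in 20 mM Hepes pH 7.5, 150 mM NaCl, 0.002% Brij 35, 1 mM DTT, 0.01% BSA. Compound preincubated with MCL1 1 h, Bim added 2 h, then acceptor and donor beads 1 h each; % inhibition versus DMSO and no-protein/peptide controls.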
Background: Bead proximity is the source of the signal in Alpha formats.

Assay [2] has as its system SKBR3 cells. In words: SKBR3 Cell Viability Assay. It is filed as cell-based. Conditions: CellTiter Glo, read-out: MCL1 CV SKBR3 EC50. Put shortly:
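Viability was measured by CellTiter-Glo luminescence after 72 h at 37° C, 5% CO2. Each well held 6,000 SKBR3 cells in McCoy's 5A/10% FBS dispensed onto serially diluted compound. Percent inhibition is relative to DMSO and 10 μM puromycin controls.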

Where [3] appears, read: Homo sapiens, SK-BR-3, 72 hours.

Each structure is given as a SMILES string. Like-named read-outs stand apart in the source and are kept apart here.

Chain of MCL1/Bim (Q07820 171-327): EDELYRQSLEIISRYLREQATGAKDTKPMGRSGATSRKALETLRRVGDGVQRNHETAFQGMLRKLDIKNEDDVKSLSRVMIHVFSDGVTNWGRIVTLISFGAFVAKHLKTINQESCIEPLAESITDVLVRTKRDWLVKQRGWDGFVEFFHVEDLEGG

The IC50 is the midpoint of a concentration-inhibition curve. The EC50 is the concentration needed to bring the measured effect to its halfway point. On to `CO[C@H]1/C=C/C[C@H](C)C[S@@](=O)(NC(=O)[C@H]2C[C@@](C)(O)C2)=NC(=O)c2ccc3c(n2)N(C[C@@H]2CC[C@H]21)C[C@@]1(CCCc2cc(Cl)ccc21)CO3` [Example 190], for which the concentration for half-maximal inhibition (IC50) in assay [1] was determined as 0.15 nM. Moreover, the half-maximal effective concentration (EC50) in assay [2] (setting [3]) came out at 306 nM.
As for `COc1nn(C)cc1C(=O)N[S@@]1(=O)=NC(=O)c2ccc3c(n2)N(C[C@@H]2CC[C@H]2[C@@H](OC)/C=C/C[C@H](C)C1)C[C@@]1(CCCc2cc(Cl)ccc21)CO3` [Example 191], the IC50 in assay [1] is 0.02 nM. The EC50 in assay [2] (72 hours) came out at 36.6 nM.
Regarding `COc1nn(C)cc1C(=O)N[S@@]1(=O)=NC(=O)c2ccc3c(n2)N(C[C@@H]2CC[C@H]2[C@@H](OC)/C=C\C[C@H](C)C1)C[C@@]1(CCCc2cc(Cl)ccc21)CO3` [Example 192], the IC50 in assay [1] was found to be 0.03 nM. Besides, the EC50 in assay [2] (72 hours) was found to be 136 nM.
For the compound `COC1CC(C(=O)N[S@@]2(=O)=NC(=O)c3ccc4c(n3)N(C[C@@H]3CC[C@H]3[C@@H](OC)/C=C/C[C@H](C)C2)C[C@@]2(CCCc3cc(Cl)ccc32)CO4)C1` (stereo partly drawn) [Example 195], the IC50 in assay [1] worked out at 0.05 nM. In assay [2] (setting [3]), the EC50 was 23.8 nM.
Consider `COc1nn(C)cc1C(=O)N[S@@]1(=O)=NC(=O)c2ccc3c(n2)N(C[C@@H]2CC[C@H]2[C@@H](OC)/C=C/[C@@H](OC)[C@H](C)C1)C[C@@]1(CCCc2cc(Cl)ccc21)CO3` [Example 197], for which the IC50 in assay [1] turned out to be 0.35 nM. The concentration for a half-maximal effect (EC50) in assay [2] (72 hours) is 516 nM.
In the case of `COc1nn(C)cc1C(=O)N[S@@]1(=O)=NC(=O)c2ccc3c(n2)N(C[C@@H]2CC[C@H]2[C@@H](OC)/C=C/[C@H](OC)[C@H](C)C1)C[C@@]1(CCCc2cc(Cl)ccc21)CO3` [Example 198], in assay [1], the half-inhibitory concentration (IC50) is 0.05 nM. Further, the EC50 in assay [2] (72 hours) was found to be 22.3 nM.
On to `CO[C@H]1/C=C/C[C@H](C)[C@@H](C)[S@@](=O)(NC(=O)c2cnn(C)c2)=NC(=O)c2ccc3c(n2)N(C[C@@H]2CC[C@H]21)C[C@@]1(CCCc2cc(Cl)ccc21)CO3` [Example 200], for which the half-maximal inhibitory concentration (IC50) in assay [1] was 0.05 nM. For the same compound, in assay [2] (setting [3]), the EC50 amounted to 21.1 nM.
The like results for `CO[C@H]1/C=C/C[C@H](C)[C@@H](C)[S@@](=O)(NC(=O)c2cnn(C3COC3)c2)=NC(=O)c2ccc3c(n2)N(C[C@@H]2CC[C@H]21)C[C@@]1(CCCc2cc(Cl)ccc21)CO3` [Example 201] were, in that order, 0.1 nM and 85 nM.
As to `CO[C@H]1/C=C/C[C@H](C)[C@@H](C)[S@@](=O)(NC(=O)COC2CCOCC2)=NC(=O)c2ccc3c(n2)N(C[C@@H]2CC[C@H]21)C[C@@]1(CCCc2cc(Cl)ccc21)CO3` [Example 203], the IC50 in assay [1] was 0.12 nM. The EC50 in assay [2] (setting [3]) was 156 nM.
In the case of `CO[C@H]1/C=C/C[C@H](C)[C@@H](C)[S@@](=O)(NC(=O)c2cnn(C)c2)=NC(=O)c2ccc3c(n2)N(C[C@@H]2CC[C@H]21)C[C@]1(CO3)C[C@@H]2C[C@@H]2c2cc(Cl)ccc21` [Example 205], in assay [1], the IC50 is 0.06 nM. Also, the EC50 in assay [2] (setting [3]) came to 81.3 nM.
As for `CO[C@H]1/C=C/C[C@H](C)[C@@H](C)[S@@](=O)(NC(=O)c2cc3n(c2)CCOC3)=NC(=O)c2ccc3c(n2)N(C[C@@H]2CC[C@H]21)C[C@]1(CO3)C[C@@H]2C[C@@H]2c2cc(Cl)ccc21` [Example 206], in assay [1], the 50% inhibitory concentration (IC50) came out at 0.23 nM. Moreover, the concentration for a half-maximal effect (EC50) in assay [2] (setting [3]) came out at 142 nM.
Consider `CO[C@H]1/C=C/C[C@H](C)C[S@@](=O)(NC(=O)c2cc(C(=O)N3CCOCC3)n(C)c2)=NC(=O)c2ccc3c(c2)N(C[C@@H]2CC[C@H]21)C[C@@]1(CCCc2cc(Cl)ccc21)CO3` [Example 207], for which, in assay [1], the IC50 was 0.08 nM. The EC50 in assay [2] (setting [3]) was 87.7 nM.
In the case of `CO[C@H]1/C=C/C[C@H](C)C[S@@](=O)(NC(=O)c2cn(C)c(=O)n2C)=NC(=O)c2ccc3c(c2)N(C[C@@H]2CC[C@H]21)C[C@@]1(CCCc2cc(Cl)ccc21)CO3` [Example 208], the 50% inhibitory concentration (IC50) in assay [1] came to 0.13 nM. Further, the EC50 in assay [2] (setting [3]) was determined as 140 nM.
Consider `CO[C@H]1/C=C/C[C@H](C)C[S@@](=O)(NC(=O)c2cn(C)nc2C#CC(C)(C)O)=NC(=O)c2ccc3c(c2)N(C[C@@H]2CC[C@H]21)C[C@@]1(CCCc2cc(Cl)ccc21)CO3` [Example 209], for which the IC50 in assay [1] came out at 0.04 nM. The half-maximal effective concentration (EC50) in assay [2] (setting [3]) was 127 nM.
In the case of `COCC#Cc1nn(C)cc1C(=O)N[S@@]1(=O)=NC(=O)c2ccc3c(c2)N(C[C@@H]2CC[C@H]2[C@@H](OC)/C=C/C[C@H](C)C1)C[C@@]1(CCCc2cc(Cl)ccc21)CO3` [Example 210], in assay [1], the IC50 amounted to 0.05 nM. The EC50 in assay [2] (setting [3]) was determined as 109 nM.

(Values after US11667652B2, “MCL1 inhibitors” (Gilead Sciences, Inc., priority 2019, dated 2023).)
